Data from patent US10807992B2, “Single enantiomer antiparasitic compounds” (priority 2017, dated 2020).

Assays:
[1] = system: Rhipicephalus sanguineus; test: In vitro contact activity against adult ticks (coated vial), R. sanguineus; details: for mortality at 0.006 µM: Trial 3, dose 0.006 μM; for mortality at 0.024 µM: Trial 3, dose 0.024 μM; for mortality at 0.098 µM: Trial 3, dose 0.098 μM; for mortality at 0.39 µM: Trial 3, dose 0.39 μM; for mortality at 1.56 µM: Trial 3, dose 1.56 μM; for mortality at 6.25 µM: Trial 3, dose 6.25 μM; for mortality at 25 µM: Trial 3, dose 25 μM; for mortality at 100 µM: Trial 3, dose 100 μM
Procedure: Rhipicephalus sanguineus, Dermacentor variabilis, Amblyomma americanum, (Ecto Services, Inc., Henderson, N.C.) and Ixodes scapularis (Oklahoma State University, Stillwater, Okla.) aged between 2-4 weeks post molt were held in an environmental chamber at 24° C., 80% humidity with 12-hour light/dark cycles.
For tick assays, vial caps were pre-drilled with a single hole in the center of each cap to allow air exchange. A filter paper (Whatman Grade 540 2.1 cm) was placed in the lid of each vial. An aliquot from each compound stock was added to an acetone/triton solution to achieve the desired top doses for the study. Serial dilutions were conducted from the top dose (i.e. 100 ppm) to achieve the desired titration range for EC50 and EC90 determination. For R. sanguineus, D. variabilis, and A. americanum, the final DMSO concentration in each test vial was 0.5%. For I. scapularis, compounds were solubilized directly in an acetone/triton solution due to I. scapularis' sensitivity to DMSO. A 459 μL aliquot of each compound formulation was transferred to a vial containing a Whatman Grade 540 2.1 cm filter paper. Vials were immediately placed on an unheated roller unit to allow for an even coating of the vial walls. After vials were coated, 41 μL of each compound formulation was added to the filter paper embedded in each vial cap. Each cap was allowed to dry. The vials were loosely capped and allowed to dry for a minimum of four hours in a chemical fume hood.
Compounds tested were: the C1 racemate, C1 (R) enantiomer, and the C1 (S) enantiomer. For Trial 3, the C1 (R) enantiomer and the C1 (S) enantiomer were further chiral purified to achieve >99% purity.
Ten adult ticks were added to each vial and held at 24° C., 80% humidity with 12-hour light/dark cycles. Adult ticks were assessed for percent mortality at various time points between 2 hours and 48 hours post infestation. Ticks were stimulated on a heated roller unit and evaluated. Ticks showing no movement, or very slow and uncoordinated movement were noted as dead.

[2] = system: Ctenocephalides felis (flea), Ixodidae (tick), and Aedes aegypti (mosquito); test: Bio-profiling of C1 racemate and enantiomers, overall conclusions of contact and ingestion assays
Source text: 1-[6-[5-(3,5-dichloro-4-fluoro-phenyl)-5-(trifluoromethyl)-4H-isothiazol-3-yl]spiro[1H-isobenzofuran-3,3′-azetidine]-1′-yl]-3,3,3-trifluoro-propan-1-one (referred to herein as C1 racemate) is an isothiazoline compound consisting of two isomers: (R)-1-[6-[5-(3,5-dichloro-4-fluoro-phenyl)-5-(trifluoromethyl)-4H-isothiazol-3-yl]spiro[1H-isobenzofuran-3,3′-azetidine]-1′-yl]-3,3,3-trifluoro-propan-1-one (referred herein as C1 (R) enantiomer) and (S)-1-[6-[5-(3,5-dichloro-4-fluoro-phenyl)-5-(trifluoromethyl)-4H-isothiazol-3-yl]spiro[1H-isobenzofuran-3,3′-azetidine]-1′-yl]-3,3,3-trifluoro-propan-1-one (referred to herein as C1 (S) enantiomer). The racemic compound and the two enantiomers were tested against adult stages of Ctenocephalides felis (flea) Ixodidae (tick), and Aedes aegypti (mosquito). The compounds were solubilized in DMSO or an acetone/triton solution and dose response curves were generated for the individual compounds.
For evaluation of contact activity, coated-substrate (flea) and coated-vial (tick and mosquito) assay procedures were used. For evaluation of flea ingestion activity, an artificial feeding assay procedure was used. Insecticidal activity was evaluated at various time-points for each assay. Dose response curves were generated in duplicate on three independent test occasions (Trial 1-Trial 3) and EC50 and EC90 values were calculated.
Therefore, mortality correction was not performed in the assays. Calculation of EC50 and EC90 values was performed using XLfit. Both EC50 and EC90 values were calculated using the average of the two replicates for each Trial.
The C1 (R) enantiomer, C1 (S) enantiomer, and the C1 racemate were successfully evaluated against flea, tick, and mosquito contact and ingestion in vitro screening assays.

**Q.** For `O=C(CC(F)(F)F)N1CC2(C1)OCc1cc(C3=NS[C@@](c4cc(Cl)c(F)c(Cl)c4)(C(F)(F)F)C3)ccc12` [C1 (S) enantiomer, (S)-1-[6-[5-(3,5-dichloro-4-fluoro-phenyl)-5-(trifluoromethyl)-4H-isothiazol-3-yl]spiro[1H-isobenzofuran-3,3′-azetidine]-1′-yl]-3,3,3-trifluoro-propan-1-one], which mortality at 0.006 µM ([1]; 2 h, Rep1) is on record?
**A.** 0%

**Q.** And the mortality at 0.006 µM ([1]; 2 h, Rep2)?
**A.** 0%

**Q.** What about the mortality at 0.024 µM ([1]; 2 h, Rep1) of the same compound?
**A.** 0%

**Q.** And the mortality at 0.024 µM ([1]; 2 h, Rep2)?
**A.** 0%

**Q.** And the mortality at 0.098 µM ([1]; 2 h, Rep1)?
**A.** 0%

**Q.** And the mortality at 0.098 µM ([1]; 2 h, Rep2)?
**A.** 0%

**Q.** What about the mortality at 0.39 µM ([1]; 2 h, Rep1) of the same compound?
**A.** 0%

**Q.** And the mortality at 0.39 µM ([1]; 2 h, Rep2)?
**A.** 0%

**Q.** And the mortality at 1.56 µM ([1]; 2 h, Rep1)?
**A.** 0%

**Q.** And the mortality at 1.56 µM ([1]; 2 h, Rep2)?
**A.** 0%

**Q.** And the mortality at 6.25 µM ([1]; 2 h, Rep1)?
**A.** 0%

**Q.** And the mortality at 6.25 µM ([1]; 2 h, Rep2)?
**A.** 0%

**Q.** And the mortality at 25 µM ([1]; 2 h, Rep1)?
**A.** 0%

**Q.** What about the mortality at 25 µM ([1]; 2 h, Rep2) of the same compound?
**A.** 0%

**Q.** And the mortality at 100 µM ([1]; 2 h, Rep1)?
**A.** 50%

**Q.** And the mortality at 100 µM ([1]; 2 h, Rep2)?
**A.** 10%

**Q.** And the mortality at 0.006 µM ([1]; 6 h, Rep1)?
**A.** 0%

**Q.** And the mortality at 0.006 µM ([1]; 6 h, Rep2)?
**A.** 0%

**Q.** What about the mortality at 0.024 µM ([1]; 6 h, Rep1) of the same compound?
**A.** 0%

**Q.** And the mortality at 0.024 µM ([1]; 6 h, Rep2)?
**A.** 0%

**Q.** And the mortality at 0.098 µM ([1]; 6 h, Rep1)?
**A.** 0%

**Q.** And the mortality at 0.098 µM ([1]; 6 h, Rep2)?
**A.** 0%

**Q.** And the mortality at 0.39 µM ([1]; 6 h, Rep1)?
**A.** 0%

**Q.** What about the mortality at 0.39 µM ([1]; 6 h, Rep2) of the same compound?
**A.** 0%

**Q.** And the mortality at 1.56 µM ([1]; 6 h, Rep1)?
**A.** 10%

**Q.** What about the mortality at 1.56 µM ([1]; 6 h, Rep2) of the same compound?
**A.** 0%

**Q.** What about the mortality at 6.25 µM ([1]; 6 h, Rep1) of the same compound?
**A.** 80%

**Q.** And the mortality at 6.25 µM ([1]; 6 h, Rep2)?
**A.** 60%

**Q.** What about the mortality at 25 µM ([1]; 6 h, Rep1) of the same compound?
**A.** 90%

**Q.** And the mortality at 25 µM ([1]; 6 h, Rep2)?
**A.** 100%

**Q.** What about the mortality at 100 µM ([1]; 6 h, Rep1) of the same compound?
**A.** 100%

**Q.** And the mortality at 100 µM ([1]; 6 h, Rep2)?
**A.** 100%

**Q.** And the mortality at 0.006 µM ([1]; 12 h, Rep1)?
**A.** 0%

**Q.** And the mortality at 0.006 µM ([1]; 12 h, Rep2)?
**A.** 0%

**Q.** And the mortality at 0.024 µM ([1]; 12 h, Rep1)?
**A.** 0%

**Q.** What about the mortality at 0.024 µM ([1]; 12 h, Rep2) of the same compound?
**A.** 0%

**Q.** What about the mortality at 0.098 µM ([1]; 12 h, Rep1) of the same compound?
**A.** 0%

**Q.** And the mortality at 0.098 µM ([1]; 12 h, Rep2)?
**A.** 0%

**Q.** And the mortality at 0.39 µM ([1]; 12 h, Rep1)?
**A.** 10%

**Q.** And the mortality at 0.39 µM ([1]; 12 h, Rep2)?
**A.** 10%

**Q.** What about the mortality at 1.56 µM ([1]; 12 h, Rep1) of the same compound?
**A.** 40%

**Q.** And the mortality at 1.56 µM ([1]; 12 h, Rep2)?
**A.** 50%

**Q.** What about the mortality at 6.25 µM ([1]; 12 h, Rep1) of the same compound?
**A.** 100%

**Q.** What about the mortality at 6.25 µM ([1]; 12 h, Rep2) of the same compound?
**A.** 100%

**Q.** And the mortality at 25 µM ([1]; 12 h, Rep1)?
**A.** 100%

**Q.** And the mortality at 25 µM ([1]; 12 h, Rep2)?
**A.** 100%

**Q.** What about the mortality at 100 µM ([1]; 12 h, Rep1) of the same compound?
**A.** 100%

**Q.** What about the mortality at 100 µM ([1]; 12 h, Rep2) of the same compound?
**A.** 100%

**Q.** And the “potency against ticks” value ([2]; adult ticks, contact assays)?
**A.** excellent potency against ticks

**Q.** And the “which enantiomer carries the biological activity of the C1 racemate” value ([2]; flea, tick and mosquito contact and ingestion assays, Trials 1-3)?
**A.** primarily be associated with the C1 (S) enantiomer
